One may read the Ki as the dissociation constant of the complex between target and ligand, obtained from inhibition or displacement. A high value points to weaker binding. By EC50 is commonly meant the concentration needed to bring the measured effect to its halfway point. A lower EC50 goes with a more potent agent.

The values that follow come from patent publication US8551978B2 (Theravance, Inc., priority 2009, dated 2013).

The target of one experiment is hM3 muscarinic receptor (Homo sapiens (Human), UniProt P20309). The experiment can be described thus: Radioligand binding assay for muscarinic receptors ([3H]-NMS displacement, CHO cell membranes). On the procedure: The cells were grown in a 5% CO2, 37° C. incubator and lifted with 2 mM EDTA in dPBS. Cells were collected by 5 minute centrifugation at 650×g, and cell pellets were either stored frozen at −80° C. or membranes were prepared immediately for use. For membrane preparation, cell pellets were resuspended in lysis buffer and homogenized with a Polytron PT-2100 tissue disrupter (Kinematica AG; 20 seconds×2 bursts). Crude membranes were centrifuged at 40,000×g for 15 minutes at 4° C. The membrane pellet was then resuspended with re-suspension buffer and homogenized again with the Polytron tissue disrupter. The protein concentration of the membrane suspension was determined by the method described in Lowry et al., 1951, […], 193, 265. All membranes were stored frozen in aliquots at −80° C. or used immediately. […] The membranes were briefly homogenized using a Polytron tissue disruptor (10 seconds) prior to assay plate addition. […] The test compounds were initially dissolved to a concentration of 400 μM in dilution buffer and then serially diluted 5× with dilution buffer to final concentrations ranging from 10 μM to […]. The order of addition and volumes added to the assay plates were as follows: 25 μL radioligand, 25 μL diluted test compound, and 50 μL membranes. Assay plates were incubated for 6 hours at 37° C. […] Filter plates were rinsed three times with wash buffer (10 mM HEPES) to remove unbound radioactivity. The plates were then air-dried and 50 μL Microscint-20 liquid scintillation fluid (PerkinElmer, Inc.) were added to each well. The plates were then counted in a PerkinElmer Topcount liquid scintillation counter (PerkinElmer, Inc.). Binding data were analyzed by nonlinear regression analysis with the GraphPad Prism Software package (GraphPad Software, Inc., San Diego, Calif.) using the one-site competition model. […] These summary statistics were then converted back to K; values for data reporting.
hM3 muscarinic receptor, sequence (P20309 whole entry): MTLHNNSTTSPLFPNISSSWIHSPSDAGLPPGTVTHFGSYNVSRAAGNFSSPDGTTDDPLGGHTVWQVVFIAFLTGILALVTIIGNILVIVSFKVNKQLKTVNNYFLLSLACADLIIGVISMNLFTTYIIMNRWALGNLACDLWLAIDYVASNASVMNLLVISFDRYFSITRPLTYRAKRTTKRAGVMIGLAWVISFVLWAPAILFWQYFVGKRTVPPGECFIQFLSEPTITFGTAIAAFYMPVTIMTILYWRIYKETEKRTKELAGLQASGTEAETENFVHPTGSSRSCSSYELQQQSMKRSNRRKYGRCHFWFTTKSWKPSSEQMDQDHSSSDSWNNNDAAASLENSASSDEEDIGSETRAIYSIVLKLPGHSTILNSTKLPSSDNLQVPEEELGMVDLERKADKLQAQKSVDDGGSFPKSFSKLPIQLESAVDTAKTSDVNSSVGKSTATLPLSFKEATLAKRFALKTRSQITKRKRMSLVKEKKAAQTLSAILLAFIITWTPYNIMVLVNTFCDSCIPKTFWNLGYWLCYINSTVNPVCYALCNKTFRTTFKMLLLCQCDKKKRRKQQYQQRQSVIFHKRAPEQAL

In a further experiment the target is hβ2 adrenergic receptor (Homo sapiens (Human), UniProt P07550). Briefly: Assay for determining adrenergic receptor agonist potency (cAMP Flashplate, HEK-293 cells). The following applies: data rounded to nearest 1 nM. Type of experiment: cell-based. The procedure:
The cell monolayer was lifted with 2 mM EDTA in PBS. Cells were pelleted by centrifugation at 1,000 rpm, and cell pellets were either stored frozen at −80° C. or membranes were prepared immediately for use. cAMP assays were performed in a radioimmunoassay format using the Flashplate Adenylyl Cyclase Activation Assay System with [^125I]-cAMP (NEN SMP004, PerkinElmer Life Sciences Inc., Boston, Mass.), according to the manufacturers instructions. […] Cells were rinsed with PBS and detached in dPBS (Dulbecco's Phosphate Buffered Saline, without CaCl2 and MgCl2) containing 2 mM EDTA or Trypsin-EDTA solution (0.05% trypsin/0.53 mM EDTA). After counting cells in Coulter cell counter, cells were pelleted by centrifugation at 1,000 rpm and re-suspended in stimulation buffer containing TBMX (PerkinElmer Kit) pre-warmed to room temperature to a concentration of 1.6×10^6 to 2.8×10^6 cells/mL. About 40,000 to 80,000 cells per well were used in this assay. […] Reactions were incubated for 10 min at 37° C. and stopped by adding 100 μL of cold detection buffer containing [^125I]-cAMP (NEN SMP004, PerkinElmer Life Sciences, Boston, Mass.). […] Data were analyzed by nonlinear regression analysis with the GraphPad Prism Software package (GraphPad Software, Inc., San Diego, Calif.) with the sigmoidal equation. The Cheng-Prusoff equation (Cheng Y, and Prusoff W H., Biochemical Pharmacology, 1973, 22, 23, 3099-108) was used to calculate the EC50 values.

Experiment [1] has as its system MCh-induced bronchoconstriction. The experiment can be described thus: Einthoven assay: bronchoprotection against methacholine (MCh)-induced bronchoconstriction. Type of experiment: in vivo, rat. The following applies: for inhibition in vivo at 0.1 mg: inhaled or nasal, read-out: Broncho. at 24 h. The procedure:
This assay measures the ability of a test compound to provide bronchoprotection against methacholine (MCh)-induced bronchoconstriction in a rat. Male Sprague-Dawley rats (Harlan, Indianapolis, Ind.), weighing between 200 g and 350 g, were used for all studies. Test compound or vehicle (sterile deionized water) were dosed by inhalation (1H) over a 10 min period in a pie shaped inhalation chamber (R+S Molds, San Carlos, Calif.) using 5 mL of dosing solution. […] Rats were dosed with 100 μg of test compound unless otherwise indicated. At predetermined time points, rats were anesthetized with an intraperitoneal (IP) injection of 120 mg/kg inactin (thiobutabarbital). A supplemental dose (40 mg/kg, IP) was administered if the animal responded to physical stimuli (e.g. toe pinch). The surgical site was shaved and a 1-2 cm midline incision of the ventral aspect of the neck was made. The jugular vein was isolated and cannulated with a saline-filled polyethylene catheter (PE-50) to allow IV infusion of MCh. Trachea was dissected free and cannulated with a 14G needle (#NE-014, Small Parts, Miami Lakes, Fla.). After placement of the tracheal cannula, each rat was ventilated using a respirator (Model 683, Harvard Apparatus, Inc., MA) set at a stroke volume of 1 mL/100 g body weight (but not exceeding 2.5 mL volume) and a rate of 90 strokes per minute. A T-connector was placed along the respirator expiratory tubing to allow for measurement of changes in ventilation pressure (VP) using a Biopac transducer that was connected to a Biopac […]) pre-amplifier. Body temperature was maintained at 37° C. using a heating pad. Changes in VP were recorded using the Acknowledge Data Collection Software (Santa Barbara, Calif.). Baseline values were collected for at least 2.5 min. Rats were then challenged with non-cumulative intravenous (IV) infusions of 40 and 80 μg/kg MCh. MCh was infused intravenously for 2.5 minutes from a syringe pump (sp210iw, World Precision Instruments, Inc., Sarasota, Fla.) at a rate of 2 mL/kg/min, with a 2 minute interval between the two doses of MCh. Changes in ventilation pressure (cm H2O) in treated animals are expressed as % inhibition of MCh response relative to control animals. Other bronchoconstrictors, such as histamine and acetylcholine, can be used in place of MCh in this assay. Additionally, guinea pigs can be used instead of rats. […] Inhibition greater than or equal to 30 percent at 24 h is indicative of a long duration of action.

Setting [2] is: rat, 100 μg by inhalation, 24 h after administration.
Setting [3] is: hM3 Muscarinic Receptor Binding, data rounded to nearest 0.1 nM.

Molecules are shown by their SMILES. Where a name gives a salt, the structure may show the parent alone. Read-outs that look alike come from different tables or passages of the source.

hβ2 adrenergic receptor, sequence (P07550 whole entry): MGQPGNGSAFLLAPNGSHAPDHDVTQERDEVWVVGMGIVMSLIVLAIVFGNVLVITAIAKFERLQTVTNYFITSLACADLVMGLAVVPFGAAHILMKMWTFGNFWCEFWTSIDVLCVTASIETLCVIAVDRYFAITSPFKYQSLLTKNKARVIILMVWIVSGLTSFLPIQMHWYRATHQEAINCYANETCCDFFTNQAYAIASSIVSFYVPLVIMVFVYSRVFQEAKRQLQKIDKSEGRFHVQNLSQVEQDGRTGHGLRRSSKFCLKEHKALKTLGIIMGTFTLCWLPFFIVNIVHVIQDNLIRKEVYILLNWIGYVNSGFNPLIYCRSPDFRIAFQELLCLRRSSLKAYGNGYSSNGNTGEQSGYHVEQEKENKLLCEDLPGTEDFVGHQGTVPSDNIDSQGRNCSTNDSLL

Take `Cc1cc(NC(=O)CCCN(C)C(=O)CCN2CCC(OC(=O)Nc3ccccc3-c3ccccc3)CC2)c(C)cc1CNC[C@H](O)c1ccc(O)c2[nH]c(=O)ccc12` [Compound I-5]: the Ki on hM3 muscarinic receptor was 0.1 nM. At hβ2 adrenergic receptor, this molecule gave an EC50 of 1 nM. Also, the inhibition in vivo at 0.1 mg in experiment [1] (setting [2]) is above 30%.
Take `COc1cc(NC(=O)CCCCN(C)C(=O)CCN2CCC(OC(=O)Nc3ccccc3-c3ccccc3)CC2)ccc1CNC[C@H](O)c1ccc(O)c2[nH]c(=O)ccc12` [Compound I-17]: the Ki at hM3 muscarinic receptor came to 0.1 nM. For the same molecule, the response on hβ2 adrenergic receptor was half-maximal at 1 nM (EC50). Further, the inhibition in vivo at 0.1 mg in experiment [1] (setting [2]) is above 30%.
Take `CC(Cc1cccc(CNC(=O)c2cccc(N(C)C(=O)CCN3CCC(OC(=O)Nc4ccccc4-c4ccccc4)CC3)c2)c1)NC[C@H](O)c1ccc(O)c2[nH]c(=O)ccc12` (some centres unmarked) [Compound I-44]: the inhibitory constant (Ki) at hM3 muscarinic receptor amounted to 0.1 nM. In addition, the EC50 on hβ2 adrenergic receptor turned out to be 1 nM. Moreover, in experiment [1] (setting [2]), the “Broncho. at 24 h” value was “No”.
In turn, `COc1cc(NC(=O)c2cccc(N(C)C(=O)CCN3CCC(OC(=O)Nc4ccccc4-c4ccccc4)CC3)c2)c(Cl)cc1CNC[C@H](O)c1ccc(O)c2[nH]c(=O)ccc12` [Compound I-31] yielded a Ki at hM3 muscarinic receptor (setting [3]) of 0.2 nM. The midpoint of the response at hβ2 adrenergic receptor, the EC50, lay at 1 nM. The inhibition in vivo at 0.1 mg in experiment [1] (setting [2]) was above 30%.
On to `CN(CCCC(=O)Nc1cccc(CCNC[C@H](O)c2ccc(O)c3[nH]c(=O)ccc23)c1)C(=O)CCN1CCC(OC(=O)Nc2ccccc2-c2ccccc2)CC1` [Compound I-7, Biphenyl-2-ylcarbamic Acid 1-(2-{[3-(3-{2-[(R)-2-Hydroxy-2-(8-hydroxy-2-oxo-1,2-dihydroquinolin-5-yl)ethylamino]ethyl}phenylcarbamoyl)-propyl]methylcarbamoyl}ethyl)piperidin-4-yl Ester Ditrifluoroacetic Acid Salt], for which the affinity at hM3 muscarinic receptor corresponds to a Ki of 0.1 nM. On hβ2 adrenergic receptor, this molecule yielded an EC50 of 1 nM. Further, in experiment [1] (Rattus norvegicus, 24 h), the inhibition in vivo at 0.1 mg was above 30%.
`COc1cc(CNC[C@H](O)c2ccc(O)c3[nH]c(=O)ccc23)ccc1NC(=O)CCCN(C)C(=O)CCN1CCC(OC(=O)Nc2ccccc2-c2ccccc2)CC1` [Compound I-3] registered a Ki on hM3 muscarinic receptor (setting [3]) of 0.1 nM. Also, on hβ2 adrenergic receptor, the concentration giving a half-maximal response (EC50) worked out at 1 nM. In experiment [1] (setting [2]), the inhibition in vivo at 0.1 mg was above 30%.
In turn, `CC(Cc1ccc(CNC(=O)Cc2ccc(N(C)C(=O)CCN3CCC(OC(=O)Nc4ccccc4-c4ccccc4)CC3)cc2)cc1)NC[C@H](O)c1ccc(O)c2[nH]c(=O)ccc12` (some centres unmarked) [Compound I-67] displayed a Ki at hM3 muscarinic receptor of 0.1 nM. Besides, on hβ2 adrenergic receptor, the EC50 was found to be 1 nM. Moreover, the inhibition in vivo at 0.1 mg in experiment [1] (setting [2]) was above 30%.
The molecule `CN(C(=O)CCN1CCC(OC(=O)Nc2ccccc2-c2ccccc2)CC1)c1cccc(C(=O)Nc2cccc(CCNC[C@H](O)c3ccc(O)c4[nH]c(=O)ccc34)c2)c1` [Compound I-32] returned an inhibition constant (Ki) at hM3 muscarinic receptor of 0.1 nM. For the same molecule, at hβ2 adrenergic receptor, the EC50 was found to be 1 nM. Besides, in experiment [1] (setting [2]), the “Broncho. at 24 h” value was “No”.
Take `CC(Cc1ccc(F)c(CC(=O)NCc2ccc(N(C)C(=O)CCN3CCC(OC(=O)Nc4ccccc4-c4ccccc4)CC3)cc2)c1)NC[C@H](O)c1ccc(O)c2[nH]c(=O)ccc12` (some centres unmarked) [Compound I-95]: the affinity at hM3 muscarinic receptor, expressed as Ki, was 0.2 nM. The EC50 at hβ2 adrenergic receptor was 1 nM. In addition, the inhibition in vivo at 0.1 mg in experiment [1] (setting [2]) is above 30%.
The molecule `C[C@H](Cc1cccc(CC(=O)NCCCN(C)C(=O)CCN2CCC(OC(=O)Nc3ccccc3-c3ccccc3)CC2)c1)NC[C@H](O)c1ccc(O)c2[nH]c(=O)ccc12` [Compound I-12] showed an inhibition constant (Ki) on hM3 muscarinic receptor of 0.1 nM. Also, at hβ2 adrenergic receptor, a half-maximal effect (EC50) was put at 1 nM. Besides, the “Broncho. at 24 h” value in experiment [1] (setting [2]) was “No”.
The matching figures for `Cc1cc(CNC[C@H](O)c2ccc(O)c3[nH]c(=O)ccc23)ccc1NC(=O)CCCN(C)C(=O)CCN1CCC(OC(=O)Nc2ccccc2-c2ccccc2)CC1` [Compound I-2]: 0.1 nM, 1 nM and “No”.
At hM3 muscarinic receptor, `CN(CCCC(=O)Nc1ccc(CCNC[C@H](O)c2ccc(O)c3[nH]c(=O)ccc23)cc1)C(=O)CCN1CCC(OC(=O)Nc2ccccc2-c2ccccc2)CC1` [Compound I-8] had a Ki of 0.1 nM. The molecule also registered an EC50 on hβ2 adrenergic receptor of 1 nM. The inhibition in vivo at 0.1 mg in experiment [1] (setting [2]) was above 30%.
The molecule `COc1ccc(CC(=O)NCc2ccc(N(C)C(=O)CCN3CCC(OC(=O)Nc4ccccc4-c4ccccc4)CC3)cc2)cc1CC(C)NC[C@H](O)c1ccc(O)c2[nH]c(=O)ccc12` (some centres unmarked) [Compound I-81] yielded a Ki at hM3 muscarinic receptor (setting [3]) of 0.1 nM. Moreover, the EC50 on hβ2 adrenergic receptor stood at 1 nM. In addition, the inhibition in vivo at 0.1 mg in experiment [1] (setting [2]) was above 30%.
Regarding `CC(Cc1ccc(NC(=O)c2cccc(N(C)C(=O)CCN3CCC(OC(=O)Nc4ccccc4-c4ccccc4)CC3)c2)cc1)NC[C@H](O)c1ccc(O)c2[nH]c(=O)ccc12` (some centres unmarked) [Compound I-40], the inhibition in vivo at 0.1 mg in experiment [1] (setting [2]) is above 30%.
`C[C@@H](Cc1cccc(CCNC(=O)Cc2ccc(N(C)C(=O)CCN3CCC(OC(=O)Nc4ccccc4-c4ccccc4)CC3)cc2)c1)NC[C@H](O)c1ccc(O)c2[nH]c(=O)ccc12` [Compound I-87]: the “Broncho. at 24 h” value in experiment [1] (setting [2]) is “Yes (Bronchoprotective effect present at 24 h, e.g., ≧30% inhibition of the MCh response at 24 h in the rat Einthoven assay (100 μg))”.
In the case of `C[C@@H](Cc1ccc(NC(=O)c2cccc(N(C)C(=O)CCN3CCC(OC(=O)Nc4ccccc4-c4ccccc4)CC3)c2)cc1)NC[C@H](O)c1ccc(O)c2[nH]c(=O)ccc12` [Compound I-43], the inhibition in vivo at 0.1 mg in experiment [1] (setting [2]) is above 30%.
With `C[C@H](Cc1ccc(NC(=O)c2cccc(N(C)C(=O)CCN3CCC(OC(=O)Nc4ccccc4-c4ccccc4)CC3)c2)cc1)NC[C@H](O)c1ccc(O)c2[nH]c(=O)ccc12` [Compound I-42], the “Broncho. at 24 h” value in experiment [1] (setting [2]) is reported as “No”.
With `Cc1ccc(C(=O)Nc2ccc(CCNC[C@H](O)c3ccc(O)c4[nH]c(=O)ccc34)cc2)cc1N(C)C(=O)CCN1CCC(OC(=O)Nc2ccccc2-c2ccccc2)CC1` [Compound I-35], the “Broncho. at 24 h” value in experiment [1] (setting [2]) was “Yes (Bronchoprotective effect present at 24 h, e.g., ≧30% inhibition of the MCh response at 24 h in the rat Einthoven assay (100 μg))”.
